According to US4169096A, “Antibiotic compounds” (priority 1977, dated 1979):
Converted amounts (≈) assume the structure as drawn. Where two headings read alike, the source gives them in different places.

Experiments:
[1] = system: Peptostreptococcus anaerobius B43; type: cell-based; conditions: GAM agar medium (Nissui)
[2] = system: two anaerobic organisms (B. fragilis and C. perfringens); type: cell-based; conditions: broth dilution method
[3] = pKa' by titration in aqueous ethanol; type: physicochemical; conditions: 46% aqueous ethanol
C. perfringens A9635 [4] = experiment: microbe, parasite or virus in culture; type: cell-based; conditions: Clostridium perfringens, A9635, read-out: MIC in GAM broth, inoculum size […] 10^6 cell/ml
[5] = system: Neisseria gonorrhoeae A20154; experiment: MIC, serial two-fold agar dilution, aerobic bacteria; type: cell-based; conditions: GC medium (Eiken)
Sarcina lutea PCI-1001 = experiment: as above; type: cell-based; conditions: Micrococcus luteus, PCI1001
[6] = system: Hemophilus influenzae A20188; experiment: as above; type: cell-based; conditions: Haemophilus influenzae, GC medium (Eiken)
B. fragilis A20928-1 [7] = experiment: Inoculum size effect on MIC, GAM agar; type: cell-based; conditions: Bacteroides fragilis, A209281; inoculum size 1.2 × 10^6 cell/ml
[8] = system: Bacillus cereus ATCC 10702 A; experiment: MIC, serial two-fold agar dilution, aerobic bacteria; type: cell-based; conditions: ATCC10702, Nutrient agar (Eiken), read-out: MIC
S. pyogenes A20201 [9] = experiment: Systemic infection with S. pyogenes in mice; type: in vivo; conditions: Streptococcus pyogenes, A20201, 120 h, just before challenge, determined after 5 days, read-out: PD50
B. fragilis A20928-1 [10] = experiment: Bactericidal activity (MIC & MBC); type: cell-based; conditions: Bacteroides fragilis, A209281, inoculum size 2.8 × 10^6 cell/ml; for MIC: broth; for MBC: growth of less than 100 colonies per plate, 18 hours at 37° C.
[11] = system: Streptococcus pyogenes A20201; experiment: MIC, serial two-fold agar dilution, aerobic bacteria; type: cell-based; conditions: GC medium (Eiken)
[12] = system: Klebsiella pneumoniae A9678; experiment: as above; type: cell-based; conditions: Nutrient agar (Eiken), read-out: MIC
[13] = system: Staphylococcus aureus #52-34; experiment: as above; type: cell-based
[14] = system: two anaerobic and one aerobic organisms; experiment: Bactericidal potential (in words); type: cell-based
[15] = system: Escherichia coli Juhl A15119; experiment: MIC, serial two-fold agar dilution, aerobic bacteria; type: cell-based; conditions: JUHLA15119, Nutrient agar (Eiken), read-out: MIC
[16] = system: Staphylococcus aereus Smith; experiment: as above; type: cell-based
[17] = system: Diplococcus pneumoniae A9585; experiment: as above; type: cell-based; conditions: Streptococcus pneumoniae, GC medium (Eiken)
[18] = system: Staphylococcus aureus 209P; experiment: as above; type: cell-based; conditions: Nutrient agar (Eiken)
C. perfringens A9635 [19] = experiment: microbe, parasite or virus in culture; type: cell-based; conditions: Clostridium perfringens, A9635, 18 h
Micrococcus flavus = experiment: MIC, serial two-fold agar dilution, aerobic bacteria; type: cell-based; conditions: Nutrient agar (Eiken), read-out: MIC
aerobic organisms = experiment: Antibacterial activity against aerobic bacteria (in words); type: cell-based; conditions: Bacillus species, streptococci, Neisseria meningtidis, N. gonorrhoeae, Hemophilus influenzae
[20] = system: Hemophilus influenzae A9832; experiment: MIC, serial two-fold agar dilution, aerobic bacteria; type: cell-based; conditions: Haemophilus influenzae, GC medium (Eiken)
[21] = system: Streptococcus pyogenes A9604; experiment: as above; type: cell-based; conditions: GC medium (Eiken)
[22] = system: C. perfringens or S. pyrogenes; type: in vivo, mice; conditions: subcutaneous and oral
[23] = system: Pseudomonas aeruginosa A9843; experiment: MIC, serial two-fold agar dilution, aerobic bacteria; type: cell-based; conditions: test medium not given
Proteus mirabilis A9554 = experiment: as above; type: cell-based; conditions: Nutrient agar (Eiken)
[24] = system: aerobic and anaerobic bacteria; experiment: Antibacterial activity and spectrum (in words); type: cell-based
Stability in solution = type: physicochemical
Solubility = type: physicochemical
[25] = system: Serratia marcescens A20019; experiment: MIC, serial two-fold agar dilution, aerobic bacteria; type: cell-based; conditions: Nutrient agar (Eiken), read-out: MIC
[26] = system: Neisseria gonorrhoeae A15112; experiment: as above; type: cell-based; conditions: GC medium (Eiken)
[27] = system: Streptococcus viridans A21354; experiment: as above; type: cell-based; conditions: GC medium (Eiken)
Proteus morganii A9553 = experiment: as above; type: cell-based; conditions: Morganella morganii, Nutrient agar (Eiken)
in vivo = conditions: sc, LD50, sc
[28] = system: Bacillus subtilis PCI-219; experiment: MIC, serial two-fold agar dilution, aerobic bacteria; type: cell-based
S. pyogenes A20201 [29] = experiment: Bactericidal activity (MIC & MBC); type: cell-based; conditions: Streptococcus pyogenes, A20201, 18 h
B. fragilis A20928-1 [30] = experiment: Inoculum size effect on MIC, GAM broth; type: cell-based; conditions: Bacteroides fragilis
[31] = system: Neisseria meningitidis A20049; experiment: MIC, serial two-fold agar dilution, aerobic bacteria; type: cell-based; conditions: GC medium (Eiken), read-out: MIC
C. perfringens A9635 [32] = experiment: animal or person; type: in vivo, mice; conditions: Clostridium perfringens, A9635, in Mus musculus, 120 h, read-out: PD50
[33] = system: Neisseria meningitidis A21496; experiment: MIC, serial two-fold agar dilution, aerobic bacteria; type: cell-based; conditions: GC medium (Eiken)
[34] = system: Escherichia coli K-12 A9632; experiment: as above; conditions: K12A9632
bacterial RNA polymerase = conditions: Antimicrobial Agents and Chemotherapy 1976, page 618; cited from earlier work
C. perfringens A9635 [35] = experiment: microbe, parasite or virus in culture; type: cell-based, Clostridium perfringens
[36] = A209281, read-out: MIC in GAM broth, inoculum size […] 10^6 cell/ml
[37] = Nutrient agar (Eiken), read-out: MIC

## COC(=O)C1C(C)OC2(C)CC(=O)C3OC12OC(C(C)/C=C(C)/C=C/C(=O)C1=C(O)CNC1=O)C3C (centres unmarked) [Bu-2313B]
[1]
  MIC: 0.4 µg/mL (≈ 0.794 µM)
[2]
  influence of inoculum size on MIC: greatly affected by inoculum size
[3]
  pKa: 4.9
C. perfringens A9635 [4]
  MIC: 25 µg/mL (≈ 49.6 µM)
[5]
  MIC: 0.8 µg/mL (≈ 1.59 µM)
Sarcina lutea PCI-1001
  MIC: 12.5 µg/mL (≈ 24.8 µM)
[6]
  MIC: 0.8 µg/mL (≈ 1.59 µM)
B. fragilis A20928-1 [7]
  MIC: 0.05 µg/mL (≈ 0.0993 µM)
[8]
  MIC: 0.8 µg/mL (≈ 1.59 µM)
S. pyogenes A20201 [9]; po, NA: no activity
  ED50: 25 mg/kg
S. pyogenes A20201 [9]; sc
  ED50: 9 mg/kg
B. fragilis A20928-1 [10]
  MIC: 0.006 µg/mL (≈ 0.0119 µM)
  MBC: > 0.8 µg/mL
[11]
  MIC: 0.4 µg/mL (≈ 0.794 µM)
[12]
  MIC: > 100 µg/mL
[13]
  MIC: 12.5 µg/mL (≈ 24.8 µM)
[14]
  antibacterial action: bacteriostatic rather than bactericidal
[15]
  MIC: > 100 µg/mL
[16]
  MIC: 12.5 µg/mL (≈ 24.8 µM)
[17]
  MIC: 0.4 µg/mL (≈ 0.794 µM)
[18]
  MIC: 25 µg/mL (≈ 49.6 µM)
C. perfringens A9635 [19]
  MBC: 12.5 µg/mL (≈ 24.8 µM)
Micrococcus flavus
  MIC: 25 µg/mL (≈ 49.6 µM)
Aerobic organisms
  susceptibility of aerobic strains: susceptible
[20]
  MIC: 0.4 µg/mL (≈ 0.794 µM)
[21]
  MIC: 0.4 µg/mL (≈ 0.794 µM)
[22]
  protection against systemic infections: fairly good protection
[23]
  MIC: > 100 µg/mL
Proteus mirabilis A9554
  MIC: > 100 µg/mL
[24]
  antibacterial activity: exhibit antibacterial activity against a variety of anaerobic bacteria and some aerobic bacteria
[24]; in vitro
  comparative activity and antibacterial spectrum: very similar to those of tirandamycin
Acute toxicity; ip, listed as Bu-2313B (free acid)
  LD50: 115 mg/kg
Acute toxicity; sc, ip and oral LD50
  comparative acute toxicity: significantly lower toxicity than Bu-2313A
Stability in solution; acidic solution
  stability: stable
Stability in solution; alkaline solution, N/10 NaOH, room temperature, overnight
  stability: inactivated
Solubility; hexane and alkaline water
  solubility: slightly soluble
Solubility; most organic solvents such as lower alcohols, ethyl acetate, chloroform and benzene
  solubility: readily soluble
Solubility; water
  solubility: practically insoluble
[25]
  MIC: > 100 µg/mL
[26]
  MIC: 0.8 µg/mL (≈ 1.59 µM)
[27]
  MIC: 0.4 µg/mL (≈ 0.794 µM)
Proteus morganii A9553
  MIC: > 100 µg/mL
In vivo
  LD50: 225 mg/kg
[28]; PCI219, Nutrient agar (Eiken), read-out: MIC
  MIC: 1.6 µg/mL (≈ 3.18 µM)
S. pyogenes A20201 [29]
  MBC: 12.5 µg/mL (≈ 24.8 µM)
B. fragilis A20928-1 [30]; A209281, inoculum size […] 10^7 cell/ml, read-out: MIC in GAM broth
  MIC: 0.4 µg/mL (≈ 0.794 µM)
B. fragilis A20928-1 [30]; [36]
  MIC: 0.013 µg/mL (≈ 0.0258 µM)
[31]
  MIC: 0.8 µg/mL (≈ 1.59 µM)
C. perfringens A9635 [32]; po
  ED50: 30 mg/kg
C. perfringens A9635 [32]; sc
  ED50: 6.25 mg/kg
[33]
  MIC: 1.6 µg/mL (≈ 3.18 µM)
[34]
  MIC: > 100 µg/mL

## CC(/C=C/C(=O)C1=C(O)CNC1=O)=C\C(C)C1OC2(C)OC(C(=O)C3OC32C)C1C (centres unmarked) [Tirandamycin, reference compound]
C. perfringens A9635 [4]
  MIC: 12.5 µg/mL (≈ 29.9 µM)
Sarcina lutea PCI-1001; [37]
  MIC: 50 µg/mL (≈ 120 µM)
[6]
  MIC: 0.8 µg/mL (≈ 1.92 µM)
S. pyogenes A20201 [9]; po, NA: no activity
  ED50: 50 mg/kg
S. pyogenes A20201 [9]; sc
  ED50: 9.7 mg/kg
B. fragilis A20928-1 [10]
  MIC: 0.025 µg/mL (≈ 0.0599 µM)
  MBC: > 0.8 µg/mL
[11]
  MIC: 0.8 µg/mL (≈ 1.92 µM)
[12]
  MIC: > 100 µg/mL
[13]; [37]
  MIC: 50 µg/mL (≈ 120 µM)
[15]
  MIC: > 100 µg/mL
[16]; [37]
  MIC: > 100 µg/mL
[18]
  MIC: 100 µg/mL (≈ 240 µM)
C. perfringens A9635 [19]
  MBC: 3.1 µg/mL (≈ 7.43 µM)
Micrococcus flavus
  MIC: 25 µg/mL (≈ 59.9 µM)
[21]
  MIC: 0.8 µg/mL (≈ 1.92 µM)
[23]
  MIC: > 100 µg/mL
Bacterial RNA polymerase
  inhibition of bacterial RNA polymerase: inhibitor of bacterial RNA polymerase in a manner similar to streptolydigin
Proteus mirabilis A9554
  MIC: > 100 µg/mL
[25]
  MIC: > 100 µg/mL
C. perfringens A9635 [35]; Clostridium perfringens, A9635, read-out: MIC in GAM agar
  MIC: 0.8 µg/mL (≈ 1.92 µM)
C. perfringens A9635 [35]; inoculum size 7 × 10^6 cell/ml
  MIC in GAM agar: 0.8 µg/mL (≈ 1.92 µM)
Proteus morganii A9553
  MIC: > 100 µg/mL
[28]; PCI219
  MIC: 3.1 µg/mL (≈ 7.43 µM)
S. pyogenes A20201 [29]
  MBC: > 12.5 µg/mL
B. fragilis A20928-1 [30]; [36]
  MIC: 0.006 µg/mL (≈ 0.0144 µM)
[31]
  MIC: 0.8 µg/mL (≈ 1.92 µM)
C. perfringens A9635 [32]; po
  ED50: 60 mg/kg
C. perfringens A9635 [32]; sc
  ED50: 17 mg/kg
[33]
  MIC: 0.8 µg/mL (≈ 1.92 µM)
[34]
  MIC: > 100 µg/mL
